One block for each compound: values may come before it.
Experiments:
Autotaxin = Autotaxin (Homo sapiens, UniProt Q13822); test: Inhibition of ATX lysoPLD (unknown origin) using 18:1 LPC as substrate assessed as reduction in choline release by HVA fluorescence based analysis
[1] = Drug uptake in iv dosed CD-1 mouse kidney assessed as high radioactivity in kidney measured up to 60 mins post injection by PET imaging analysis; format: ADME, organism-based; conditions: in vivo, 1 h
[2] = Drug uptake in liver of LPS- induced CD-1 mouse model assessed as increase in signal of tracer in liver measured after 30 mins by autoradiography analysis relative to control; format: ADME, tissue-based; conditions: in vivo, 0.5 h
[3] = Ex vivo biodistribution in bone of iv dosed CD-1 mouse assessed as accumulation of radioactivity in bone measured after 15 to 60 min by PET imaging analysis; format: ADME, organism-based, Bone element; conditions: time 15-60 min
[4] = Drug uptake in iv dosed CD-1 mouse liver assessed as high radioactivity in liver measured up to 60 mins post injection by PET imaging analysis; format: ADME, organism-based; conditions: in vivo, 1 h
[5] = Drug uptake in liver of LPS- induced CD-1 mouse model assessed as increase in signal of tracer in inflammed liver by measuring AUC (30 to 60 mins) relative to control; format: ADME, tissue-based; conditions: in vivo, time 30-60 min
[6] = Drug uptake in iv dosed CD-1 mouse small intestine assessed as high radioactivity in small intestine measured up to 60 mins post injection by PET imaging analysis; format: ADME, organism-based; conditions: in vivo, 1 h
[7] = Drug uptake in iv dosed CD-1 mouse brain measured up to 60 mins post injection by PET imaging analysis; format: ADME, organism-based; conditions: in vivo, 1 h
[8] = Drug uptake in iv dosed CD-1 mouse bone measured after 30 min by PET imaging analysis; format: ADME, organism-based, Bone element; conditions: in vivo, 0.5 h
[9] = Drug uptake in iv dosed CD-1 mouse bone assessed as accumulation of radioactivity in bone measured after 30 mins post injection by PET imaging analysis; format: ADME, organism-based, Bone element; conditions: in vivo, 0.5 h
[10] = Drug uptake in iv dosed CD-1 mouse bone assessed as accumulation of radioactivity in bone measured after 60 mins post injection by PET imaging analysis; format: ADME, organism-based, Bone element; conditions: in vivo, 1 h
[11] = Drug uptake in iv dosed CD-1 mouse bone assessed as accumulation of radioactivity in bone measured after 30 to 60 mins post injection by PET imaging analysis; format: ADME, organism-based, Bone element; conditions: in vivo, time 30-60 min

SMILES: CCc1nc2ccc(N3CCN(CC(=O)N4CCC(F)CC4)CC3)cn2c1N(C)c1nc(-c2ccc(F)cc2)c(C#N)s1
- Ki (Autotaxin): 15 nM

SMILES: CCc1nc2ccc(N3CCN(CC(=O)N4CC(F)C4)CC3)cn2c1N(C)c1nc(-c2ccc(F)cc2)c(C#N)s1
- Ki (Autotaxin): 41 nM

SMILES: CCc1nc2ccc(N3CCN(CC(=O)N4CCN(CCF)CC4)CC3)cn2c1N(C)c1nc(-c2ccc(F)cc2)c(C#N)s1
- Ki (Autotaxin): 13 nM

SMILES: CCc1nc2ccc(N3CCN(CC(=O)N4CC[C@H](F)C4)CC3)cn2c1N(C)c1nc(-c2ccc(F)cc2)c(C#N)s1
- Ki (Autotaxin): 32 nM

SMILES: CCc1nc2ccc(N3CCN(CC(=O)N4CC(CF)C4)CC3)cn2c1N(C)c1nc(-c2ccc(F)cc2)c(C#N)s1
- Ki (Autotaxin): 14 nM

SMILES: [2H]C([2H])([18F])C([2H])([2H])N1CCN(C(=O)CN2CCN(c3ccc4nc(CC)c(N(C)c5nc(-c6ccc(F)cc6)c(C#N)s5)n4c3)CC2)CC1
- Drug uptake [1]: Active
- Drug uptake [2]: 92%
- Drug uptake [3]: Not Active
- Drug uptake [4]: Active
- Drug uptake [5]: 84%
- Drug uptake [6]: Active

SMILES: CCc1nc2ccc(N3CCN(CC(=O)N4CCC(C[18F])C4)CC3)cn2c1N(C)c1nc(-c2ccc(F)cc2)c(C#N)s1 (stereo not drawn)
- Drug uptake [1]: Active
- Drug uptake [7]: Not Active
- Drug uptake [8]: Active
- Drug uptake [3]: Active
- Drug uptake [4]: Active
- Drug uptake [6]: Active

SMILES: CCc1nc2ccc(N3CCN(CC(=O)N4CCN(CC[18F])CC4)CC3)cn2c1N(C)c1nc(-c2ccc(F)cc2)c(C#N)s1
- Drug uptake [9]: 6.6 % ID/g
- Drug uptake [10]: 6.4 % ID/g

SMILES: CCc1nc2ccc(N3CCN(CC(=O)N4CC[C@@H](F)C4)CC3)cn2c1N(C)c1nc(-c2ccc(F)cc2)c(C#N)s1
- Ki (Autotaxin): 14 nM

SMILES: CCc1nc2ccc(N3CCN(CC(=O)N4CC(O)C4)CC3)cn2c1N(C)c1nc(-c2ccc(F)cc2)c(C#N)s1
- Ki (Autotaxin): 30 nM

SMILES: CCc1nc2ccc(N3CCN(CC(=O)N4CCC(CF)C4)CC3)cn2c1N(C)c1nc(-c2ccc(F)cc2)c(C#N)s1 (stereo not drawn)
- Ki (Autotaxin): 7 nM

Second part, the compound after the results:

- Ki (Autotaxin): 17 nM
SMILES: CCc1nc2ccc(N3CCN(CC(=O)N4CC(OCCF)C4)CC3)cn2c1N(C)c1nc(-c2ccc(F)cc2)c(C#N)s1

- Ki (Autotaxin): 19 nM
SMILES: [2H]C([2H])(F)C([2H])([2H])N1CCN(C(=O)CN2CCN(c3ccc4nc(CC)c(N(C)c5nc(-c6ccc(F)cc6)c(C#N)s5)n4c3)CC2)CC1

- Ki (Autotaxin): 15 nM
SMILES: CCc1nc2ccc(N3CCN(CC(=O)N4CCC(F)C4)CC3)cn2c1N(C)c1nc(-c2ccc(F)cc2)c(C#N)s1 (stereo not drawn)

- Ki (Autotaxin): 15 nM
SMILES: CCc1nc2ccc(N3CCN(CC(=O)N4CCCC(F)C4)CC3)cn2c1N(C)c1nc(-c2ccc(F)cc2)c(C#N)s1 (stereo not drawn)

- Drug uptake [11]: 10 % ID/g
SMILES: CCc1nc2ccc(N3CCN(CC(=O)N4CCC([18F])C4)CC3)cn2c1N(C)c1nc(-c2ccc(F)cc2)c(C#N)s1 (stereo not drawn)

- Drug uptake [11]: 10 % ID/g
SMILES: CCc1nc2ccc(N3CCN(CC(=O)N4CCC([18F])CC4)CC3)cn2c1N(C)c1nc(-c2ccc(F)cc2)c(C#N)s1

Reference: ChEMBL document CHEMBL5030559, “Imaging Autotaxin In Vivo with 18F-Labeled Positron Emission Tomography Ligands” (J Med Chem, 2021)
